Measured values taken from ChEMBL document CHEMBL4052645, “Discovery of potent and efficacious pyrrolopyridazines as dual JAK1/3 inhibitors” (Bioorg Med Chem Lett, 2017).

Key:
[1] = target: Inhibitor of nuclear factor kappa-B kinase subunit epsilon (Homo sapiens) (UniProt Q14164); assay: Inhibition of wild-type human full length IKK-epsilon (M1 to V716 residues) expressed in mammalian expression system assessed as residual activity at 50 nM by Kinomescan method relative to control
[2] = target: Activated CDC42 kinase 1 (Homo sapiens) (UniProt Q07912); assay: Inhibition of wild-type human partial length ACK (S159 to D474 residues) expressed in bacterial expression system assessed as residual activity at 50 nM by Kinomescan method relative to control
[3] = target: Aurora kinase B (Homo sapiens) (UniProt Q96GD4); assay: Inhibition of wild-type human partial length AURB (D25 to A303 residues) expressed in mammalian expression system assessed as residual activity at 50 nM by Kinomescan method relative to control
[4] = target: Ephrin type-A receptor 6 (Homo sapiens) (UniProt Q9UF33); assay: Inhibition of wild-type human partial length EPHA6 (Y700 to E1046 residues) expressed in bacterial expression system assessed as residual activity at 50 nM by Kinomescan method relative to control
Ephrin type-A receptor 6 (Homo sapiens), sequence (Q9UF33 whole entry, the tested form may be a part): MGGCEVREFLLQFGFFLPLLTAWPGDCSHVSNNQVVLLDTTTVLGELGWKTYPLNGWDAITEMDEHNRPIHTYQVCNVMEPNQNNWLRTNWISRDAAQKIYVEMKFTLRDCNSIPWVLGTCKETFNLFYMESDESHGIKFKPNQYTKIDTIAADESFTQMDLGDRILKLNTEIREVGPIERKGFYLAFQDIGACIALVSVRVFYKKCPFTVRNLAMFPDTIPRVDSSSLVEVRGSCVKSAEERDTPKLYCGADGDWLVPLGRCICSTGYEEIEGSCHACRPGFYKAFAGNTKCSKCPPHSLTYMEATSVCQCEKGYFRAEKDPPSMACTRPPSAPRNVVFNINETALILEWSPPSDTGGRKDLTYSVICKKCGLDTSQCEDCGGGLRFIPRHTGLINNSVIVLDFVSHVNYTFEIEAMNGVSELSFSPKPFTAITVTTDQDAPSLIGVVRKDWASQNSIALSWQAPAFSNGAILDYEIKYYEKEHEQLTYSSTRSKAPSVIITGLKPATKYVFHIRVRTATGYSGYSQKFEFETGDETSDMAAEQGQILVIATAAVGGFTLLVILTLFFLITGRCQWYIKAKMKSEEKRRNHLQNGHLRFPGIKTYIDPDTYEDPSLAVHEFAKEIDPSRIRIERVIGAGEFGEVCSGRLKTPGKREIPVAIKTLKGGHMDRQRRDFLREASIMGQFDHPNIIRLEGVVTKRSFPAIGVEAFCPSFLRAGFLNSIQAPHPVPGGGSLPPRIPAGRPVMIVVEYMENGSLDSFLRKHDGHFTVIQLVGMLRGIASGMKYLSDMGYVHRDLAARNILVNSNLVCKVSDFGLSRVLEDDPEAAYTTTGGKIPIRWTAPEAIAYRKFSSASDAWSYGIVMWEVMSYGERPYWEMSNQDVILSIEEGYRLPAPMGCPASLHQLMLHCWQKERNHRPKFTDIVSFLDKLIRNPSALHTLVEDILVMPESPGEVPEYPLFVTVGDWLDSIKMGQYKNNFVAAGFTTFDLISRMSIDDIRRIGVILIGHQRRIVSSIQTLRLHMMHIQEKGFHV

[5] = target: Fibroblast growth factor receptor 1 (Homo sapiens) (UniProt P11362); assay: Inhibition of wild-type human partial length FGFR1 (P357 to V669 residues) expressed in bacterial expression system assessed as residual activity at 50 nM by Kinomescan method relative to control
[6] = target: Vascular endothelial growth factor receptor 2 (Homo sapiens) (UniProt P35968); assay: Inhibition of wild-type human partial length KDR (R787 to P1253 residues) expressed in mammalian expression system assessed as residual activity at 50 nM by Kinomescan method relative to control
[7] = target: Rho-associated protein kinase 1 (Homo sapiens, UniProt Q13464); assay: Inhibition of human ROCK1 (M1 to R415 residues) expressed in mammalian expression system assessed as residual activity at 50 nM by KINOMEscan assay relative to control
[8] = target: Phosphorylase b kinase gamma catalytic chain, liver/testis isoform (Homo sapiens) (UniProt P15735); assay: Inhibition of wild-type human partial length PHKG2 (M1 to W300 residues) expressed in bacterial expression system assessed as residual activity at 50 nM by Kinomescan method relative to control
Phosphorylase b kinase gamma catalytic chain, liver/testis isoform (Homo sapiens), sequence (P15735 whole entry, the tested form may be a part, canonical isoform): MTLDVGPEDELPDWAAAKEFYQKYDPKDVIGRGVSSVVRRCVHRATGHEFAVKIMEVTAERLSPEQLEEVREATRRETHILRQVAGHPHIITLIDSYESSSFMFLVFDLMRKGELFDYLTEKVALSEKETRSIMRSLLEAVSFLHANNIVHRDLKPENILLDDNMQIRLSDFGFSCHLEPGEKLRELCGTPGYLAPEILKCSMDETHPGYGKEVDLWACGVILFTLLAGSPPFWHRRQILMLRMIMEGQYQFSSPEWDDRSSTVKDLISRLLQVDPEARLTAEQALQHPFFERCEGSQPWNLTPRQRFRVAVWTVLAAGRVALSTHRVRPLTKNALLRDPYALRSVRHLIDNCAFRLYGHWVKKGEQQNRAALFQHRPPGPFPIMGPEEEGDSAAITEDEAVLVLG

[9] = target: Calcium/calmodulin-dependent protein kinase type II subunit gamma (Homo sapiens) (UniProt Q13555); assay: Inhibition of wild-type human partial length CAMK2G (R9 to A303 residues) expressed in bacterial expression system assessed as residual activity at 50 nM by Kinomescan method relative to control
Calcium/calmodulin-dependent protein kinase type II subunit gamma (Homo sapiens), sequence (Q13555 whole entry, the tested form may be a part): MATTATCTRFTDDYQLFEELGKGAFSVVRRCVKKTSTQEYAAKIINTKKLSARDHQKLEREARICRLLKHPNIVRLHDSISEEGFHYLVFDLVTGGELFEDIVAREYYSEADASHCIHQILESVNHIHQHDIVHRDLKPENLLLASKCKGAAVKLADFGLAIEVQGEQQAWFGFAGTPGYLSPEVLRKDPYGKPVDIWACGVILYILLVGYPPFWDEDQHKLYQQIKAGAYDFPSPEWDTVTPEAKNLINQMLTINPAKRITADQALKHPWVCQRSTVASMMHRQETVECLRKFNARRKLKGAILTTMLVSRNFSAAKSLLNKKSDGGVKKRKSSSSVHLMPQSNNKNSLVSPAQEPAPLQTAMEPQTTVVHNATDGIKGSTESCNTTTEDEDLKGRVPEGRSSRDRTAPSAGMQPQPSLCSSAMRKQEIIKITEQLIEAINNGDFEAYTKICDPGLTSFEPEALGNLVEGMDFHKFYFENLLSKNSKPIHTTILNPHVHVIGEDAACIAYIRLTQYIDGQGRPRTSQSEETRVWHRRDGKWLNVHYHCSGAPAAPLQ

[10] = target: Homeodomain-interacting protein kinase 4 (Homo sapiens) (UniProt Q8NE63); assay: Inhibition of wild-type human partial length HIPK4 (M1 to V384 residues) expressed in bacterial expression system assessed as residual activity at 50 nM by Kinomescan method relative to control
[11] = test system: Phosphatidylinositol 4,5-bisphosphate 3-kinase catalytic subunit alpha isoform (Homo sapiens), P42336 [I800L]; assay: Inhibition of human partial length PI3KCA I800L mutant (R108 to N1068 residues) expressed in mammalian expression system assessed as residual activity at 50 nM by Kinomescan method relative to control
[12] = target: Serine/threonine-protein kinase pim-2 (Homo sapiens) (UniProt Q9P1W9); assay: Inhibition of wild-type human partial length PIM2 (M1 to E291 residues) expressed in bacterial expression system assessed as residual activity at 50 nM by Kinomescan method relative to control
Serine/threonine-protein kinase pim-2 (Homo sapiens), sequence (Q9P1W9 whole entry, looked up, the tested form may be a part, canonical isoform): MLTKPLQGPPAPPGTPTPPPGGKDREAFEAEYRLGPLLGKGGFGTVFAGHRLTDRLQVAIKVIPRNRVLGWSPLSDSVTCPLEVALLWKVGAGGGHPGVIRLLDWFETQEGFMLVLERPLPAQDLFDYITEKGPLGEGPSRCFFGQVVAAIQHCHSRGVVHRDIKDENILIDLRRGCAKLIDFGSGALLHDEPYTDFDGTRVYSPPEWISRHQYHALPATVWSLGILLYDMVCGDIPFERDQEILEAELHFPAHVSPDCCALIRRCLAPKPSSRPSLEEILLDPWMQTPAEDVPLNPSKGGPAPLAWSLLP

[13] = target: Casein kinase I isoform gamma-1 (Homo sapiens) (UniProt Q9HCP0); assay: Inhibition of wild-type human partial length CK1G1 (T15 to S353 residues) expressed in bacterial expression system assessed as residual activity at 50 nM by Kinomescan method relative to control
[14] = target: Ephrin type-A receptor 5 (Homo sapiens) (UniProt P54756); assay: Inhibition of wild-type human partial length EPHA5 (T627 to V930 residues) expressed in bacterial expression system assessed as residual activity at 50 nM by Kinomescan method relative to control
Ephrin type-A receptor 5 (Homo sapiens), sequence (P54756 whole entry, the tested form may be a part): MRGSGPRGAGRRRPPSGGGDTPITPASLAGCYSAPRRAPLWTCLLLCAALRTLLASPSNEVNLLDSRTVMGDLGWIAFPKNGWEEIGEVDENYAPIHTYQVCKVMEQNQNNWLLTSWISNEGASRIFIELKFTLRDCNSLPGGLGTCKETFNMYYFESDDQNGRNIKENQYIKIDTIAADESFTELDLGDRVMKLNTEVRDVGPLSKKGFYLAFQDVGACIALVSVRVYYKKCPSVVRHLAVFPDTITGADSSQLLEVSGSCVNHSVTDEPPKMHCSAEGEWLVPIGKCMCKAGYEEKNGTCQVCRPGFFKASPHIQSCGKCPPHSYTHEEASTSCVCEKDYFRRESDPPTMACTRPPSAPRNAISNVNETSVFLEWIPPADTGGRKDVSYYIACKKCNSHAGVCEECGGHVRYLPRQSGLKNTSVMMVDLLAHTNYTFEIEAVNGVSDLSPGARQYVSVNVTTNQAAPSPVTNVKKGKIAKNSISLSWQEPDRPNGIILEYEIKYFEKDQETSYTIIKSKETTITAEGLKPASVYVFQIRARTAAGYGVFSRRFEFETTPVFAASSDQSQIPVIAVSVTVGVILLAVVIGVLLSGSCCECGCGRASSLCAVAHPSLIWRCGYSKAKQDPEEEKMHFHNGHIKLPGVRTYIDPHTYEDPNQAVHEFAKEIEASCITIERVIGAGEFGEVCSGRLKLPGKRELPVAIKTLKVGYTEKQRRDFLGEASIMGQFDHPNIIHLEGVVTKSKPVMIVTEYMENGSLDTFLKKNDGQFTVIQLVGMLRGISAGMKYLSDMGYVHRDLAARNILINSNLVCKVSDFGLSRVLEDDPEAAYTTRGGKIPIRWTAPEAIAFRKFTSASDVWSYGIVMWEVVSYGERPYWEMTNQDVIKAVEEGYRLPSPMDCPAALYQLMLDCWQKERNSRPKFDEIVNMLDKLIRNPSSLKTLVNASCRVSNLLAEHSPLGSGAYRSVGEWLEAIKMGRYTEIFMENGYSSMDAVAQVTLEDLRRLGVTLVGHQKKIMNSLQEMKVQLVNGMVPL

[15] = target: Serine/threonine-protein kinase RIO1 (Homo sapiens) (UniProt Q9BRS2); assay: Inhibition of full length human RIOK1 (M1 to K568 residues) expressed in bacterial expression system assessed as residual activity at 50 nM by KINOMEscan assay relative to control
[16] = target: Serine/threonine-protein kinase RIO2 (Homo sapiens) (UniProt Q9BVS4); assay: Inhibition of wild-type human partial length RIOK2 (M1 to D313 residues) expressed in mammalian expression system assessed as residual activity at 50 nM by Kinomescan method relative to control
Serine/threonine-protein kinase RIO2 (Homo sapiens), sequence (Q9BVS4 whole entry, looked up, the tested form may be a part): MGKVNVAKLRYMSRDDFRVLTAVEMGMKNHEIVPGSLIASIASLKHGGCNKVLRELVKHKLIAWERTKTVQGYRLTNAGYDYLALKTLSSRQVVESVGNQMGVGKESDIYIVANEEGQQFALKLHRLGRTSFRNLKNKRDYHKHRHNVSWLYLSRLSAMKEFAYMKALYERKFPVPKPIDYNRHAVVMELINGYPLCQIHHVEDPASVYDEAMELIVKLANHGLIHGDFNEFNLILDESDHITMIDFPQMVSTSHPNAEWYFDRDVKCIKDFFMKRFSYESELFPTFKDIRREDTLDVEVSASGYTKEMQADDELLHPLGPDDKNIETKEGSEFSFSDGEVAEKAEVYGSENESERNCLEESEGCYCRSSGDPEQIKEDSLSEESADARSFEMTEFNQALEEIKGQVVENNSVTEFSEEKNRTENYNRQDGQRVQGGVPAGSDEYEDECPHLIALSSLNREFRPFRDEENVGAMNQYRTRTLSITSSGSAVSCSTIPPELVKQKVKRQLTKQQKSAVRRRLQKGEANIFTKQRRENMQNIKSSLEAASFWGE

[17] = target: Tyrosine-protein kinase Fyn (Homo sapiens) (UniProt P06241); assay: Inhibition of wild-type human partial length FYN (T243 to L534 residues) expressed in bacterial expression system assessed as residual activity at 50 nM by Kinomescan method relative to control
[18] = target: Serine/threonine-protein kinase tousled-like 2 (Homo sapiens) (UniProt Q86UE8); assay: Inhibition of wild-type human partial length TLK2 (E424 to N749 residues) expressed in bacterial expression system assessed as residual activity at 50 nM by Kinomescan method relative to control
[19] = target: Mitogen-activated protein kinase 6 (Homo sapiens) (UniProt Q16659); assay: Inhibition of wild-type human partial length ERK3 (M1 to P413 residues) expressed in bacterial expression system assessed as residual activity at 50 nM by Kinomescan method relative to control
[20] = target: Hormonally up-regulated neu tumor-associated kinase (Homo sapiens) (UniProt P57058); assay: Inhibition of wild-type human partial length HUNK (A31 to K354 residues) expressed in bacterial expression system assessed as residual activity at 50 nM by Kinomescan method relative to control
Hormonally up-regulated neu tumor-associated kinase (Homo sapiens), sequence (P57058 whole entry, the tested form may be a part): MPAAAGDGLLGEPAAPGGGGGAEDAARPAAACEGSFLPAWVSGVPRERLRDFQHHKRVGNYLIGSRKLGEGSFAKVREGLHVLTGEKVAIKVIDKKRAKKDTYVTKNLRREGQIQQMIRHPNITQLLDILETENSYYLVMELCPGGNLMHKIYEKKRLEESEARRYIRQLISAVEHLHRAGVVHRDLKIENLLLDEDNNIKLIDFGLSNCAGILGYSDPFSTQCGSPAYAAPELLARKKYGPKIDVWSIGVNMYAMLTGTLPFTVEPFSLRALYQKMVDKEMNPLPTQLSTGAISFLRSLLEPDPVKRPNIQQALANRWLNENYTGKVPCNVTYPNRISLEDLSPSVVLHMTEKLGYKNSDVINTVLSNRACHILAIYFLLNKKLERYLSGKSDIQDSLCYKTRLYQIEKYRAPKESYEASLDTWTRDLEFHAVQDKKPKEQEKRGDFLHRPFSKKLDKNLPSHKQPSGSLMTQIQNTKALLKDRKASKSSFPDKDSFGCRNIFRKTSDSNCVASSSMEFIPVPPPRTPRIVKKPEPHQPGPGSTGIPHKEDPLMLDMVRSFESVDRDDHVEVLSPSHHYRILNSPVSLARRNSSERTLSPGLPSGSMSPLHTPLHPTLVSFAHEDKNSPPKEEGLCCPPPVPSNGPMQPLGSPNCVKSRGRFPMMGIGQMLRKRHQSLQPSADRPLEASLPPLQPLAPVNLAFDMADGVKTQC

[21] = target: Cyclin-dependent kinase 5 (Homo sapiens) (UniProt Q00535); assay: Inhibition of wild-type human full length CDK5 (M1 to P292 residues) expressed in bacterial expression system assessed as residual activity at 50 nM by Kinomescan method relative to control
Cyclin-dependent kinase 5 (Homo sapiens), sequence (Q00535 whole entry, looked up, the tested form may be a part): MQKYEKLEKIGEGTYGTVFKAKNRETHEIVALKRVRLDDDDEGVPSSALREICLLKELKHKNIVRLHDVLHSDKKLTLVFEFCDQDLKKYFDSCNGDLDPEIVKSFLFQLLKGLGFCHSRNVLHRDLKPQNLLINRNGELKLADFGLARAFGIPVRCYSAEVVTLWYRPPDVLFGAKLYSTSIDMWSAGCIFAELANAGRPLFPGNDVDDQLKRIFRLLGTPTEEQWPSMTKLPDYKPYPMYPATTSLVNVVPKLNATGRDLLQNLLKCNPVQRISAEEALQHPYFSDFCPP

[22] = target: Dual specificity mitogen-activated protein kinase kinase 5 (Homo sapiens) (UniProt Q13163); assay: Inhibition of human MAP2K5 (L98 to P448 residues) expressed in mammalian expression system assessed as residual activity at 50 nM by KINOMEscan assay relative to control
[23] = target: Interleukin-1 receptor-associated kinase 1 (Homo sapiens) (UniProt P51617); assay: Inhibition of wild-type human partial length IRAK1 (R194 to S712 residues) expressed in mammalian expression system assessed as residual activity at 50 nM by Kinomescan method relative to control
[24] = target: Casein kinase I isoform gamma-2 (Homo sapiens) (UniProt P78368); assay: Inhibition of wild-type human full length CK1G2 (M1 to K415 residues) expressed in bacterial expression system assessed as residual activity at 50 nM by Kinomescan method relative to control
[25] = target: Platelet-derived growth factor receptor alpha (Homo sapiens) (UniProt P16234); assay: Inhibition of wild-type human partial length PDGFRA (V575 to D1002 residues) expressed in mammalian expression system assessed as residual activity at 50 nM by Kinomescan method relative to control

SMILES | Activity [1] [%] | Activity [2] [%] | Activity [3] [%] | Activity [4] [%] | Activity [5] [%] | Activity [6] [%] | Activity [7] [%] | Activity [8] [%] | Activity [9] [%] | Activity [10] [%] | Activity [11] [%] | Activity [12] [%] | Activity [13] [%] | Activity [14] [%] | Activity [15] [%] | Activity [16] [%] | Activity [17] [%] | Activity [18] [%] | Activity [19] [%] | Activity [20] [%] | also measured
CC1(C)[C@H](Nc2c(C(N)=O)cnn3cc(-c4ccccc4)cc23)CC[C@]1(C)N | 100 | 73 | 64 | 100 | 81 | 100 | 5.3 | 67 | 91 | 100 | 100 | 100 | 92 | 100 | 14 | 50 | 99 | 96 | 82 | 65 | Activity [21]: 94%; Activity [22]: 5%; Activity [23]: 94%; Activity [24]: 100%; Activity [25]: 67%
COc1ccc(-c2cc3c(N[C@@H]4CC[C@](C)(N)C4(C)C)c(C(N)=O)cnn3c2)cn1 | 91 | 100 | 100 | 95 | 92 | 88 | 36 | 100 | 90 | 80 | 100 | 100 | 100 | 100 | 69 | 99 | 100 | 98 | 100 | 100 | Activity [21]: 92%; Activity [22]: 34%; Activity [23]: 100%; Activity [24]: 82%; Activity [25]: 97%
